# Literature values, collected in patent US20050123576A1, “Mupirocin compositions for topical use, an improved process of making same and methods of using same” (priority 2003, published 2005).
# Columns and labels:
# [1] = glycerol, mineral oil, caprylic-capric triglyceride, isopropyl myristate, isopropyl palmitate, octyl dodecanol (Eutanol G), isopropyl stearate
# [2] = in the presence of water, acids and bases
smiles,measurement,setting,value
C/C(=C\C(=O)OCCCCCCCCC(=O)O)C[C@@H]1OC[C@H](C[C@@H]2O[C@H]2[C@@H](C)[C@H](C)O)[C@@H](O)[C@H]1O [Mupirocin],solubility in pharmaceutically acceptable carriers,[1],insoluble
same,stability (hydrolysis and rearrangement reactions),[2],unstable
